Experimental data taken from ChEMBL document CHEMBL1155712, “Cytotoxic polyacetylenes from the twigs of Ochanostachys amentacea” (2001).
Converted amounts (≈) assume the structure as drawn.

Experiments:
Type in all cases: functional
Details in all cases: read-out: ED50 (the source's name)
KB [1] = test: Cytotoxicity against multidrug-resistant human KB cells in presence of vinblastine
KB [2] = test: Cytotoxicity against multidrug-resistant human KB cells in absence of vinblastine
LNCaP = test: Cytotoxicity against human LNCAP cells
SW626 = test: Cytotoxicity against human SW626 cells
SK-N-SH = test: Cytotoxicity against human SK-N-SH cells
M109 = test: Cytotoxicity against mouse M109 cells
[3] = Cytotoxicity against human BC1 cells
Lu1 = test: Cytotoxicity against human Lu1 cells
Col2 = test: Cytotoxicity against human Col2 cells
KB [4] = test: Cytotoxicity against human KB cells
P388 = test: Cytotoxicity against mouse P388 cells

Structure (SMILES)	EC50 (KB [1]) [mg/L]	EC50 (KB [2]) [mg/L]	EC50 (LNCaP) [mg/L]	EC50 (SW626) [mg/L]	EC50 (SK-N-SH) [mg/L]	EC50 (M109) [mg/L]	EC50 [3] [mg/L]	EC50 (Lu1) [mg/L]	EC50 (Col2) [mg/L]	EC50 (KB [4]) [mg/L]	EC50 (P388) [mg/L]
C[C@H](O)/C=C/C#CC#CC#CCCCCCCCC(=O)O	> 20	> 20	0.3 (≈ 1.05 µM)	0.36 (≈ 1.26 µM)	3.7 (≈ 12.9 µM)	5.4 (≈ 18.9 µM)	> 20	> 20	9.9 (≈ 34.6 µM)	1.1 (≈ 3.84 µM)	–
O=C(O)CCCCCCCC#CC#CC#CC#CC(O)CO (single isomer, unassigned)	11.9	13.4 (≈ 44.6 µM)	9.2 (≈ 30.6 µM)	19.4 (≈ 64.6 µM)	6.7 (≈ 22.3 µM)	10.1 (≈ 33.6 µM)	> 20	14.6 (≈ 48.6 µM)	> 20	2.6 (≈ 8.66 µM)	–
C[C@H](O)C#CC#CC#CC#CCCCCCCCC(=O)O [MINQUARTYNOIC ACID]	2.8	4.3 (≈ 15.1 µM)	1.6 (≈ 5.63 µM)	4.1 (≈ 14.4 µM)	1.4 (≈ 4.92 µM)	3.7 (≈ 13 µM)	3.5 (≈ 12.3 µM)	4.1 (≈ 14.4 µM)	5.5 (≈ 19.3 µM)	3.7 (≈ 13 µM)	0.18 (≈ 0.633 µM)
